This note sets out measurements from patent US7906506B2, “Substituted chiral fused [1,2] imidazo [4,5-c] ring compounds and methods” (3M Innovative Properties Company, priority 2006, dated 2011).

SMILES strings stand for the structures.

Broadly, the melting point is the temperature of the solid-liquid transition. With `CC1OC[C@H](C)n2c1nc1c(N)nc3ccccc3c12` (stereo partly drawn) [Example 1, (11S)-8,11-Dimethyl-10,11-dihydro-8H-[1,4]oxazino[4′,3′:1,2]imidazo[4,5-c]quinolin-6-amine], the melting point was 218 to 223 °C.
Under `CCCC1OC[C@H](C)n2c1nc1c(N)nc3ccccc3c12` (stereo partly drawn) [Example 2, (11S)-1-Methyl-8-propyl-10,11-dihydro-8H-[1,4]oxazino[4′,3′:1,2]imidazo[4,5-c]quinolin-6-amine] stands 243 to 268 °C.
